Data as given in patent publication US12403141B2, “Deuterated MK2 pathway inhibitors and methods of using the same” (ACLARIS THERAPEUTICS, INC., priority 2019, dated 2025).
Entries after “also recorded” stand apart in the source; their conditions may differ. Values belong to the compound of their own block, whether it stands above or below them.

What was measured:
[1] = PO pharmacokinetics in male SD rats; assay type: in vivo, rat; conditions: PO 2 mpk
Procedure: Pharmacokinetic parameters of some examples were evaluated in male Sprague Dawley (SD) rats after intravenous (IV) and oral (PO) dosing. Male SD rats (5-6 weeks of age) were fasted for 12 hours before administration of the compound of interest. Animals were allowed access to food 2 h after dosing and water was given ad libitum. Except for the compound of Example 13, pharmacokinetic experiments comparing deuterium containing and non-deuterium containing compounds were performed at the same time using the same cohort of animals. The pharmacokinetic properties of the compound of Example 13 were evaluated separately and compared to previously generated data.
For oral (PO) dosing, a 0.2 mg/mL suspension of the test compound was prepared in a vehicle comprising 0.5% Tween-20 in 0.5% methyl cellulose in phosphate buffered saline (PBS). For a 2 mpk dose, 10 mL/kg of this dosing vehicle was administered by oral gavage. Blood samples from each animal was collected di-sodium EDTA coated containers at 0.25, 0.5, 1.0, 2.0, 4.0, 8.0 10.0 and 24.0 hours after dosing. Plasma was separated from the blood samples within 15 minutes following collection and stored at −20±5° C. before analysis.
A standard curve was generated from a stock solution of the test compound with known concentration in methanol. […]
Plasma samples collected from rats after dosing were allowed to reach room temperature. […] The supernatant (10 uL) was analyzed by LC-MS/MS (LC: Shimadzu SIL HTc, MS: MDS Sciex API-5500 & 4000 using 75%/25% acetonitrile/0.2% formic acid in Milli-Q water, flow rate: 1.0 mL/min, run time 3 minutes, Atlantis dC18(50×4.6 mm, 3 um; Waters®)) and the concentrations of the test compound in the plasma samples collected from rats at each time point were determined by comparison to the standard curve samples.
Pharmacokinetic parameters were calculated from the plasma concentrations at each time point using Phoenix WinNonlin (Version 7.0) by the non-compartmental analysis (NCA) method. […]

rat hepatocytes = assay: In vitro metabolite profile in rat hepatocytes; assay type: in vitro ADME; design: key to UV % at 280-290 nm or observed (+ or --), metabolite M532b (Hydroxylation) / UV % at 280-290 nm or observed (+ or --), metabolite M532d (Hydroxylation) / UV % at 280-290 nm or observed (+ or --), metabolite M532e (Hydroxylation) / UV % at 280-290 nm or observed (+ or --), metabolite M530b (Hydroxylation) / UV % at 280-290 nm or observed (+ or --), metabolite M530d (Hydroxylation) / UV % at 280-290 nm or observed (+ or --), metabolite M530e (Hydroxylation): +: only detected by MS; --: not detected or trace; conditions: 10 μM; for UV % at 280-290 nm, Parent-T0 min: T0 min (normalized as 100%)
Procedure: (§1) Briefly, each test compound (final concentration of 10 μM containing 0.1% DMSO) was incubated with rat, dog, minipig, monkey, or human hepatocytes (final viable cell density of 1×10^6 cells/mL) at 37° C. with 5% CO2 in HI hepatocyte maintenance media (BIOIVT; Catalog #Z99009) for 120 minutes. Reactions were initiated by combining 200 μL of pre-warmed 2× dosing solution containing 20 μM test compound and 0.2% DMSO in HI maintenance media with 200 μL of pre-warmed hepatocyte solution containing 2×10^6 cells/mL in HI maintenance media. Samples were taken at 0 minutes (T0) and 120 minutes (T120) by quenching the reaction with 1200 μL acetonitrile. After quenching, the samples were sonicated for 2 minutes and then centrifuged at 1400 rpm for 5 minutes. A 1400-μL aliquot of the supernatant was evaporated under a stream of N2 until dry. The dried extracts were then reconstituted with 200 μL acetonitrile: H2O (1:3 v/v), vortexed for 2 minutes and centrifuged at 14000 rpm for 5 minutes. A 2-μL aliquot of the supernatant was injected onto a Xevo UPLC-UV-G2-S Q-Tof system (Waters®) with positive-ion electrospray ionization for analysis. Chromatographic separation was achieved on an Acquity UPLC®BEH C18 column (2.1×50 mm, 1.7 μm; Waters®) by gradient elution using varying proportions of mobile phase A (H2O with 0.1% formic acid) and mobile phase B (acetonitrile with 0.1% formic acid) at a constant flow rate of 400 μL/minute over a total run time of 10 minutes. LC-UV-MS extract ion chromatograms (EIC) of the T120 samples were compared to the T0 samples to identify the major putative metabolites which were named as Mm/z.

monkey hepatocytes = assay: In vitro metabolite profile in monkey hepatocytes; assay type: in vitro ADME; design: key to UV % at 280-290 nm or observed (+ or --), metabolite M387 (O-dealkylation) / UV % at 280-290 nm or observed (+ or --), metabolite M532b (Hydroxylation) / UV % at 280-290 nm or observed (+ or --), metabolite M532c (Hydroxylation) / UV % at 280-290 nm or observed (+ or --), metabolite M532d (Hydroxylation) / UV % at 280-290 nm or observed (+ or --), metabolite M563 (O-dealkylation + Glucuronidation) / UV % at 280-290 nm or observed (+ or --), metabolite M530b (Hydroxylation) / UV % at 280-290 nm or observed (+ or --), metabolite M530c (Hydroxylation) / UV % at 280-290 nm or observed (+ or --), metabolite M530d (Hydroxylation): +: only detected by MS; --: not detected or trace; conditions: 10 μM; for UV % at 280-290 nm, Parent-T0 min: T0 min (normalized as 100%)
Procedure: as §1

[2] = 120 min, relative to parent at T0

AUC(0-t) ([1]; Sprague-Dawley, rat, plasma, 2 mg/kg, ± one standard deviation, read-out: AUC0-10 hr): 2020 ± 120 ng·h/mL
UV % at 280-290 nm or observed (+ or --), metabolite M532b (Hydroxylation) (rat hepatocytes; [2]): --
UV % at 280-290 nm or observed (+ or --), metabolite M532e (Hydroxylation) (rat hepatocytes; [2]): +
UV % at 280-290 nm or observed (+ or --), metabolite M532d (Hydroxylation) (rat hepatocytes; [2]): --
UV % at 280-290 nm, Parent-T120 min (rat hepatocytes; [2]): 84.3%
UV % at 280-290 nm, Parent-T0 min (rat hepatocytes): 100.0%
UV % at 280-290 nm or observed (+ or --), metabolite M387 (O-dealkylation) (monkey hepatocytes; [2]): +
UV % at 280-290 nm or observed (+ or --), metabolite M532b (Hydroxylation) (monkey hepatocytes; [2]): --
UV % at 280-290 nm or observed (+ or --), metabolite M532c (Hydroxylation) (monkey hepatocytes; [2]): +
UV % at 280-290 nm or observed (+ or --), metabolite M532d (Hydroxylation) (monkey hepatocytes; [2]): +
UV % at 280-290 nm, Parent-T120 min (monkey hepatocytes; [2]): 96.6%
UV % at 280-290 nm, Parent-T0 min (monkey hepatocytes): 100.0%
SMILES: [2H]C([2H])(Oc1cc(C)n(-c2cc(-c3ccnc(C(C)(C)O)n3)ncc2C)c(=O)c1Cl)c1ncc(F)cc1F (single isomer, unassigned) [Example 1-D2, (P)-3-Chloro-4-((3,5-difluoropyridin-2-yl)methoxy-d2)-2′-(2-(2-hydroxypropan-2-yl)pyrimidin-4-yl)-5′,6-dimethyl-2H-[1,4′-bipyridin]-2-one]
effect of deuterium substitution on exposure after PO dosing (AUC) ([1]; versus non-deuterated comparator, listed as Example 1): significantly higher exposure; also recorded: increased exposure

AUC0-10 hr ([1]; ± one standard deviation): 854 ± 228 ng·h/mL
UV % at 280-290 nm or observed (+ or --), metabolite M387 (O-dealkylation) (rat hepatocytes; [2]): 16.2%
UV % at 280-290 nm or observed (+ or --), metabolite M530b (Hydroxylation) (rat hepatocytes; [2]): +
UV % at 280-290 nm or observed (+ or --), metabolite M530c (Hydroxylation) (rat hepatocytes; [2]): 1.1%
UV % at 280-290 nm or observed (+ or --), metabolite M530e (Hydroxylation) (rat hepatocytes; [2]): +
UV % at 280-290 nm or observed (+ or --), metabolite M563 (O-dealkylation + Glucuronidation) (rat hepatocytes; [2]): 1.06%
UV % at 280-290 nm or observed (+ or --), metabolite M530d (Hydroxylation) (rat hepatocytes; [2]): --
UV % at 280-290 nm, Parent-T120 min (rat hepatocytes; [2]): 82.7%
UV % at 280-290 nm, Parent-T0 min (rat hepatocytes): 100.0%
UV % at 280-290 nm or observed (+ or --), metabolite M387 (O-dealkylation) (monkey hepatocytes; [2]): 4.8%
UV % at 280-290 nm or observed (+ or --), metabolite M530b (Hydroxylation) (monkey hepatocytes; [2]): --
UV % at 280-290 nm or observed (+ or --), metabolite M530c (Hydroxylation) (monkey hepatocytes; [2]): +
UV % at 280-290 nm or observed (+ or --), metabolite M530e (Hydroxylation) (monkey hepatocytes; [2]): 1.5%
UV % at 280-290 nm or observed (+ or --), metabolite M563 (O-dealkylation + Glucuronidation) (monkey hepatocytes; [2]): +
UV % at 280-290 nm or observed (+ or --), metabolite M530d (Hydroxylation) (monkey hepatocytes; [2]): --
UV % at 280-290 nm, Parent-T120 min (monkey hepatocytes; [2]): 85.7%
UV % at 280-290 nm, Parent-T0 min (monkey hepatocytes): 100.0%
SMILES: Cc1cnc(-c2ccnc(C(C)(C)O)n2)cc1-n1c(C)cc(OCc2ncc(F)cc2F)c(Cl)c1=O (atropisomer, axis not shown; (P)) [Example 1-H2, (P)-3-chloro-4-((3,5-difluoropyridin-2-yl)methoxy)-2′-(2-(2-hydroxypropan-2-yl)pyrimidin-4-yl)-5′,6-dimethyl-2H-[1,4′-bipyridin]-2-one]
